# Key:
# [1] = tested on: NCI-56 human tumor cell lines; settings: cited from earlier work
# [2] = tested on: Panc-02 tumor cells; test: Cytotoxicity after 4 h co-incubation, MTT test; assay type: cell-based, mouse; settings: Panc-02 cells, at concentrations of more than 80 μM
# Protocol: The mechanisms underlying the cytotoxicity of the Gem-DHA may be different from that of gemcitabine. For example, in cell culture studies, Panc-02 cells were seeded into 96-well plates (1,500 cells per well) and incubated at 37° C., 5% CO2 for 24 h. They were then co-incubated with various concentrations of Gem-DHA, gemcitabine HCl alone, or DHA alone for 4 h, and cell viability was determined using an MTT test.
# [3] = tested on: Panc-02 tumors; test: Antitumor activity against s.c. Panc-02 tumors in C57BL/6 mice; assay type: in vivo; settings: i.p., ~0.1 mmole/kg, twice a week, up to 6 doses
# Protocol: Therefore, the in vivo anti-tumor activity of Gem-DHA was also evaluated and compared to that of DHA alone in male C57BL/6 mice (6-8 weeks, Charles River) with subcutaneously (s.c.)
# implanted Panc-02 tumors. Briefly, 1×10^6 cells were s.c. injected in the right flank of mice. Sixteen days later, mice were randomized into groups (n=12) and i.p. injected with Gem-DHA (˜55 mg/kg, […]) or DHA (˜33 mg/kg, ˜0.1 mmole/kg). Mice in the control group were i.p. injected with sterile 5% mannitol (w/v). Gem-DHA and DHA was dissolved in a Tween 80/ethanol/water solution with 5% (w/v) of mannitol. The doses were based on the average weight of mice in the same group on the first day of injection. The treatment was repeated twice a week for up to 6 doses. Tumor growth was monitored using a digital caliper, and tumor volume was calculated based on the longest diameter (L1) and the shortest diameter (L2) of each tumor using the equation of V=½×(L1×L2×L2).
# [4] = tested on: BxPC-3 cells; test: Cytotoxicity of Gem-ARA, MTT assay, BxPC-3 cells; assay type: cell-based, human; settings: up to 72 h, mean ± SD (n>3)
# Protocol: (§1) To understand the effect of the omega-3 polyunsaturated fatty acid nature of the DHA (i.e., the docosahexaedecanoyl group) in the Gem-DHA on its cytotoxicity against tumor cells, gemcitabine was also conjugated to arachidonic acid, an omega-6 polyunsaturated fatty acid, to synthesize 4-(N)-arachidonyl gemcitabine (Gem-ARA) (FIG. 4). Human pancreatic cancer cells (MIA PaCa-2 or BxPC-3) were seeded (3,000/well) in 96-well plates. After overnight incubation, cells were treated with various concentrations of gemcitabine HCl or Gem-ARA at 37° C., 5% CO2 for up to 72 h. Gemcitabine HCl was dissolved in phosphate buffered saline (PBS, pH 7.4, 10 mM), and Gem-ARA was dissolved in DMSO. The maximum amount of DMSO added per well was 0.9 μL, which was found non-toxic. The number of viable cells after the incubation was determined using an MTT assay as described above. The 50% inhibition concentration (IC50) values were estimated using GraphPad prism 5 parameters curve fittings.
# [5] = tested on: MIA PaCa-2 cells; test: Cytotoxicity of Gem-ARA, MTT assay, MIA PaCa-2 cells; assay type: cell-based, human; settings: up to 72 h, mean ± SD (n>3)
# Protocol: as §1
# [6] = Aqueous solubility by the indirect method (IPM/water partitioning, Beall et al.); assay type: physicochemical; settings: mean ± SD (n=3)
# Protocol: The aqueous solubility of Gem-DHA was determined following an indirect method according to Beall et al. with minimal modifications (Beall HD et al. International Journal of Pharmaceutics. 1993, 93, 37-47). Briefly, an excess amount of Gem-DHA was added to 100 μl of IPM in a crimp-sealed amber glass vials under nitrogen and was stirred vigorously at room temperature for 24 h, protected from light. After the stirring was stopped, the mixture was left to stand for an additional 24 h for equilibration. The content of the vial was centrifuged (14,000 rpm, 10 min) and the supernatant was transferred into a different tube. Aliquots of the saturated IPM solution were used to measure the Gem-DHA concentration before partitioning (A1) using HPLC (after proper dilution with methanol). Then, water was added to the IPM saturated solution in a volume ratio of 10:1. The two phases were mixed by vortexing for 5 min, left to stand for 15 min, then centrifuged (14,000 rpm, 15 min) to collect the IPM layer. Gem-DHA concentration in the IPM layer (A2) was again measured using HPLC after partitioning. The following equation was used to calculate the partition coefficient (KIPM/water) (Beall HD et al. International Journal of Pharmaceutics. 1993, 93, 37-47):
# [formula] where Vwater is the volume of the water phase and VIPM is the volume of IPM. The value of (Vwater/VIPM) was 10.
# The aqueous solubility (Sw) of Gem-DHA was determined using the following equation (Id.):
# [formula] where SIPM is the solubility of Gem-DHA in IPM.
# (§2) In order to validate the method of Beall et al. (Id.), the aqueous solubility of 4-(N)-stearoyl gemcitabine, another lipophilic gemcitabine conjugate (Sloat BR et al. Int J Pharm. 2011, 409(1-2), 278-288), which is stable in water, was measured directly (i.e., direct method) or using the indirect method reported by Beall et al. (Beall HD et al. International Journal of Pharmaceutics. 1993, 93, 37-47).
# [7] = Aqueous solubility measured directly (direct method); assay type: physicochemical; settings: mean ± SD (n=3)
# Protocol: as §2
# [8] = tested on: pre-established tumors; settings: solubilized in a Tween 80 solution; cited from earlier work
# [9] = tested on: MIA PaCa-2, Panc-1 cells, CCRF-CEM, B16-F10, and TC-1; settings: various tumor cell lines in culture; cited from earlier work
# [10] = tested on: advanced pancreatic cancer; settings: in combination with gemcitabine; cited from earlier work
structure (smiles),measurement,setting,value
CC/C=C\C/C=C\C/C=C\C/C=C\C/C=C\C/C=C/CCC(=O)O[C@@H](C(=O)O[C@H]1C[C@@]2(O)[C@@H](OC(=O)c3ccccc3)C3[C@](C)(C(=O)[C@H](OC(C)=O)C(=C1C)C2(C)C)[C@@H](O)C[C@H]1OC[C@@]31OC(C)=O)[C@@H](NC(=O)c1ccccc1)c1ccccc1 (some centres unmarked) [DHA conjugated to paclitaxel],Effect of DHA conjugation on cytotoxicity,[1],lowers the cytotoxicity of the paclitaxel
"CC/C=C\C/C=C\C/C=C\C/C=C\C/C=C\C/C=C\CCC(=O)O [DHA, Cis-4,7,10,13,16,19-docosahexaenoic acid, reference compound]",Cytotoxicity after 4 h of co-incubation,[2],did not show any significant cytotoxicity
same,Inhibition of Panc-02 tumor growth,[3],did not significantly inhibit the tumor growth
"CCCCC/C=C\C/C=C\C/C=C\C/C=C\CCCC(=O)Nc1ccn([C@@H]2O[C@H](CO)[C@@H](O)C2(F)F)c(=O)n1 [Gem-ARA, 4-(N)-Arachidonoyl Gemcitabine]",IC50,[4],1.93 ± 3.8 nM
same,IC50,[5],64.3 ± 42.7 nM
"CCCCCCCCCCCCCCCCCC(=O)Nc1ccn([C@@H]2OC(CO)C(O)C2(F)F)c(=O)n1 (some centres unmarked) [Stearoyl gemcitabine, 4-(N)-stearoyl gemcitabine]",KIPM/water (partition coefficient),"[6]; IPM/water, room temperature",35.33 ± 2.7
same,"Water Solubility, Indirect method",[6]; estimated from solubility in IPM and KIPM/water,1.39 ± 0.1 µg/mL
same,"Water Solubility, Direct method",[7],1.38 ± 1.6 µg/mL
same,Inhibition of tumor growth compared with gemcitabine,[8],not more active than gemcitabine alone
same,Cytotoxicity compared with gemcitabine,[9],less cytotoxic than gemcitabine alone
C#Cc1cccc(Nc2ncnc3cc(OCCOC)c(OCCOC)cc23)c1 [erlotinib],Prolongation of median survival,[10],10 days

# Source: patent US11883423B2, “Nucleobase analogue derivatives and their applications” (BOARD OF REGENTS, THE UNIVERSITY OF TEXAS SYSTEM, priority 2014, dated 2024)
